For 27 compounds, T/C results are on record in PubChem BioAssay AID264 (DTP/NCI, 2004).

“And” between values parts separate entries of the source, which are not always exact repeats. Equal values may be shown once. Inconclusive results are not listed.

This experiment relates to nude mice, LX-1 lung xenograft intrarenal, tumor weight T/C. Put plainly: NCI In Vivo Anticancer Drug Screen. Data for tumor model Human Lung LX-1 Xenograft (intrarenal inoculation) in NU/NU Swiss (nude) mice. Particulars: endpoint: mean tumor weight change, higher = larger tumour. The gist of the method:
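Activity was scored by measuring tumors in treated animals and in vehicle controls, then reporting the treated result as a fraction of the control result.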
For orientation: In xenograft studies the graft and the host belong to different species.

Setting [1] is: dose: 300.0 mg/kg/injection, schedule: Q04DX003 (sc), vehicle: Klucel (hydroxypropylcellulose) (HPC).
Where [2] appears, read: dose: 600.0 mg/kg/injection, schedule: Q04DX003 (sc), vehicle: Klucel (hydroxypropylcellulose) (HPC).
The mark [3] stands for this setting: dose: 1200.0 mg/kg/injection, schedule: Q04DX003 (sc), vehicle: Klucel (hydroxypropylcellulose) (HPC).
The mark [4] stands for this setting: dose: 2400.0 mg/kg/injection, schedule: Q04DX003 (sc), vehicle: Klucel (hydroxypropylcellulose) (HPC).
Setting [5] is: dose: 75.0 mg/kg/injection, schedule: Q04DX003 (sc), vehicle: saline with Tween-80.
The mark [6] stands for this setting: dose: 150.0 mg/kg/injection, schedule: Q04DX003 (sc), vehicle: saline with Tween-80.
Where [7] appears, read: dose: 100.0 mg/kg/injection, schedule: Q01DX010 (sc), vehicle: saline with Tween-80.
The mark [8] stands for this setting: dose: 200.0 mg/kg/injection, schedule: Q01DX010 (sc), vehicle: saline with Tween-80.
The mark [9] stands for this setting: dose: 400.0 mg/kg/injection, schedule: Q01DX010 (sc), vehicle: saline with Tween-80.
The mark [10] stands for this setting: dose: 150.0 mg/kg/injection, schedule: Q04DX003 (sc), vehicle: Klucel (hydroxypropylcellulose) (HPC).
[11] abbreviates: dose: 25.0 mg/kg/injection, schedule: Q01DX010 (sc), vehicle: Klucel (hydroxypropylcellulose) (HPC).
[12] abbreviates: dose: 50.0 mg/kg/injection, schedule: Q01DX010 (sc), vehicle: Klucel (hydroxypropylcellulose) (HPC).
[13] abbreviates: dose: 100.0 mg/kg/injection, schedule: Q01DX010 (sc), vehicle: Klucel (hydroxypropylcellulose) (HPC).
Setting [14] is: dose: 1200.0 mg/kg/injection, schedule: Q04DX003 (sc), vehicle: saline with Tween-80.
Setting [15] is: dose: 600.0 mg/kg/injection, schedule: Q04DX003 (sc), vehicle: saline with Tween-80.

Turning to `O=P(O)(NCCCl)NCCCl`, the T/C (dose: 150.0 mg/kg/injection, schedule: Q04DX003 (sc), vehicle: saline) is 33 % of control.

Regarding `[N-]=[N+]=CC(=O)CCC(N)C(=O)O` (centres undefined), the T/C runs as follows: (dose: 0.05 mg/kg/injection, schedule: Q01DX010 (sc), vehicle: saline) 91 % of control; (dose: 0.37 mg/kg/injection, schedule: Q01DX010 (sc), vehicle: saline) 12 % of control; (dose: 0.75 mg/kg/injection, schedule: Q01DX010 (sc), vehicle: saline) -28 % of control.

Regarding `Cc1ccc(C2NC(=S)N3C(c4ccc(C)cc4)NC(=S)N23)cc1` (centres undefined), the T/C is, setting by setting: under setting [1], 64 % of control; under setting [2], 66 % of control; under setting [3], 80 % of control; under setting [4], 65 % of control.

As to `CCC[P+](c1ccccc1)(c1ccccc1)c1ccccc1`, the T/C runs as follows: (dose: 37.5 mg/kg/injection, schedule: Q04DX003 (sc), vehicle: saline with Tween-80) 83 % of control; under setting [5], 79 % of control; under setting [6], 79 % of control.

Take `CS(=O)(=O)CS(=O)(=O)OCCCl`: the T/C (dose: 150.0 mg/kg/injection, schedule: Q04DX003 (sc), vehicle: suspension in saline) was 94 % of control.

Take `Nc1cc2[nH]cnc2c(=O)[nH]1`: the T/C by setting is: (dose: 25.0 mg/kg/injection, schedule: Q01DX010 (sc), vehicle: saline) 25 % of control; (dose: 200.0 mg/kg/injection, schedule: Q01DX010 (sc), vehicle: saline) 16 % of control and 18 % of control.

`O=c1[nH]c(=O)n(C2CC(O)C(CO)O2)cc1F` (centres undefined): the T/C runs as follows: (dose: 50.0 mg/kg/injection, schedule: Q01DX010 (sc), vehicle: water) 77 % of control; (dose: 100.0 mg/kg/injection, schedule: Q01DX010 (sc), vehicle: water) 39 % of control.

With `Nc1nc(N)c2c(Cl)c(CNc3ccc(Cl)c(Cl)c3)ccc2n1`, the T/C (dose: 25.0 mg/kg/injection, schedule: Q01DX010 (sc), vehicle: saline with Tween-80) is 111 % of control.

Consider `c1ccc([P+](c2ccccc2)(c2ccccc2)c2ccccc2)cc1`, for which the T/C (dose: 2.5 mg/kg/injection, schedule: Q04DX003 (sc), vehicle: saline) was 93 % of control; the T/C (dose: 5.0 mg/kg/injection, schedule: Q04DX003 (sc), vehicle: saline) was 107 % of control; the T/C (dose: 10.0 mg/kg/injection, schedule: Q04DX003 (sc), vehicle: saline) is 71 % of control and 87 % of control.

As for `Cc1nc(N)nc(N)c1-c1ccc(Cl)c(Cl)c1`, the T/C is 85 % of control (dose: 0.16 mg/kg/injection, schedule: Q01DX010 (sc), vehicle: saline); 111 % of control (dose: 0.32 mg/kg/injection, schedule: Q01DX010 (sc), vehicle: saline); 115 % of control (dose: 0.63 mg/kg/injection, schedule: Q01DX010 (sc), vehicle: saline); 106 % of control (dose: 1.25 mg/kg/injection, schedule: Q01DX010 (sc), vehicle: saline).

Take `CCOC(=O)c1ccc(NC(=O)Nc2nccs2)cc1`: the T/C by setting is: under setting [7], 99 % of control; under setting [8], 107 % of control; under setting [9], 92 % of control; (dose: 800.0 mg/kg/injection, schedule: Q01DX010 (sc), vehicle: saline with Tween-80) 66 % of control.

Take `CCN(Cc1ccc(Cl)c(Cl)c1)c1ccc2nc(N)nc(N)c2c1C`: where the note is “dose: 37.5 mg/kg/injection, schedule: Q04DX003 (sc), vehicle: water”, the T/C was 62 % of control.

For the compound `COc1cc2c[n+](C)c3c4cc5c(cc4ccc3c2cc1OC)OCO5`, the T/C runs as follows: (dose: 100.0 mg/kg/injection, schedule: Q04DX003 (sc), vehicle: saline with Tween-80) 157 % of control; (dose: 200.0 mg/kg/injection, schedule: Q04DX003 (sc), vehicle: saline with Tween-80) 92 % of control; (dose: 800.0 mg/kg/injection, schedule: Q04DX003 (sc), vehicle: saline with Tween-80) 109 % of control.

For `O=C(CC(=O)C(F)(F)F)c1csc2ccccc12`, the T/C was 81 % of control (dose: 75.0 mg/kg/injection, schedule: Q04DX003 (sc), vehicle: Klucel (hydroxypropylcellulose) (HPC)); 70 % of control under setting [10]; 93 % of control under setting [1]; 87 % of control under setting [2].

As to `COC(=O)Nc1nc2ccc(SC)cc2c(=O)[nH]1`, the T/C was 93 % of control under setting [1], 93 % of control under setting [2], 95 % of control under setting [3] and 92 % of control under setting [4].

In the case of `CCOC(=O)CNC(=O)Sc1ccc(C(C)(C)C)cc1`, the T/C runs as follows: under setting [10], 89 % of control; under setting [1], 99 % of control; under setting [2], 76 % of control; under setting [3], 95 % of control.

In the case of `Cc1ccc(C2NC(=O)c3ccccc3N2)s1` (centres undefined), the T/C runs as follows: under setting [2], 106 % of control; under setting [3], 86 % of control; under setting [4], 82 % of control; (dose: 4800.0 mg/kg/injection, schedule: Q04DX003 (sc), vehicle: Klucel (hydroxypropylcellulose) (HPC)) 94 % of control.

Turning to `COC(=O)Nc1cccc(-c2nc3ccc(NC(=O)OC)cc3c(=O)n2-c2ccccc2)c1`, the T/C was 99 % of control under setting [11]; 160 % of control under setting [12]; 93 % of control under setting [13]; 84 % of control (dose: 200.0 mg/kg/injection, schedule: Q01DX010 (sc), vehicle: Klucel (hydroxypropylcellulose) (HPC)).

With `N#CC(=C1C=CC(=NO)C=C1)c1ccc(Cl)cc1`, the T/C is 173 % of control under setting [6]; 175 % of control and 198 % of control under setting [14]; 180 % of control (dose: 2400.0 mg/kg/injection, schedule: Q04DX003 (sc), vehicle: saline with Tween-80).

With `N#CC(C#N)=C/C=C/c1cccc([N+](=O)[O-])c1`, the T/C is 90 % of control under setting [11]; 83 % of control under setting [12]; 69 % of control under setting [13]; 84 % of control (dose: 400.0 mg/kg/injection, schedule: Q01DX010 (sc), vehicle: Klucel (hydroxypropylcellulose) (HPC)); 42 % of control (dose: 800.0 mg/kg/injection, schedule: Q01DX010 (sc), vehicle: Klucel (hydroxypropylcellulose) (HPC)).

Regarding `Ic1ncnc2c1ncn2C1CCCO1` (centres undefined), the T/C runs as follows: (dose: 200.0 mg/kg/injection, schedule: Q04DX003 (sc), vehicle: Klucel (hydroxypropylcellulose) (HPC)) 168 % of control; (dose: 800.0 mg/kg/injection, schedule: Q04DX003 (sc), vehicle: Klucel (hydroxypropylcellulose) (HPC)) 107 % of control; (dose: 1600.0 mg/kg/injection, schedule: Q04DX003 (sc), vehicle: Klucel (hydroxypropylcellulose) (HPC)) 41 % of control.

On to `c1ccc2sc(SSN3CC4CCC(CC4)C3)nc2c1`, for which the T/C is 81 % of control (dose: 50.0 mg/kg/injection, schedule: Q01DX010 (sc), vehicle: saline with Tween-80); 76 % of control under setting [7]; 48 % of control under setting [8]; 50 % of control under setting [9].

For `C[C@]12CCC(=O)C=C1CC[C@@H]1[C@@H]2[C@@H](O)C[C@@]2(C)[C@H]1CC[C@]2(O)C(=O)CO`, under setting [1], the T/C is 40 % of control.

`O=C1CN(CN2CCOCC2)C(=O)CN1CN1CCOCC1`: the T/C (dose: 50.0 mg/kg/injection, schedule: Q01DX010 (sc), vehicle: suspension in saline) was 116 % of control and the T/C (dose: 200.0 mg/kg/injection, schedule: Q01DX010 (sc), vehicle: suspension in saline) was 156 % of control.

Consider `CCC(=O)N(C)[C@@H](C)C(=O)O[C@H]1CC(=O)N(C)c2cc(cc(OC)c2Cl)C/C(C)=C/C=C[C@@H](OC)[C@@]2(O)C[C@H](OC(=O)N2)[C@@H](C)[C@@H]2O[C@@]12C`, for which the T/C was 106 % of control (dose: 0.13 mg/kg/injection, schedule: Q01DX010 (sc), vehicle: saline + alcohol) and 31 % of control (dose: 0.25 mg/kg/injection, schedule: Q01DX010 (sc), vehicle: saline + alcohol).

As for `CC(=O)ON(C(C)=O)c1ccc(C(N)=O)cc1`, the T/C runs as follows: under setting [6], 110 % of control; (dose: 300.0 mg/kg/injection, schedule: Q04DX003 (sc), vehicle: saline with Tween-80) 114 % of control; under setting [15], 100 % of control; under setting [14], 97 % of control.

For the compound `COc1ccc(S(=O)(=O)N=N/C=C2\C=CC=CN2O)cc1OC`, the T/C is 111 % of control under setting [5], 124 % of control under setting [6] and 11 % of control under setting [15].
